# Where no end group is shown, it is not given here.
# Assays:
# [1] = tested on: aPL (pool from APS patients); test: Determination of aPL by ELISA on coated peptides / biotinylated peptides (custom immunoassay); type: binding, Human
# Protocol: Determination of aPL by ELISA—MaxiSorp™ 96 well plates (Nunc) or Streptavidin plate (Thermofisher) were coated with 10 μg/ml recombinant domains of β2GP1, peptides or biotinylated-peptide prior to incubation with aPLA. Secondary anti-human antibodies conjugated to IR800CW (Rockland) or HRP were used. Protein- or peptide-bound antibodies were detected and quantified by the Odyssey system (Li-Cor Biosciences) or absorbance in optical densities (OD) was determined at 405 nm (molecular Devices™ Filtermax).
# (§1) The de Groot's research group has pointed at the importance of hydrophobic character of the plate during coating of R39-R43 epitope. In order to abrogate of the plate-dependent aPL binding, the Ia-1 and Ib-1 peptides as well as the R39-R43 with a biotin at their N-terminal were synthetized and coated a streptavidin plate. In this configuration, the different peptides are flag oriented in the space preventing any interaction with the plate. It was thus observed that the flag-type orientation of R39-R43-biot leads to 8.52×more interaction with aPL while they show 9.63×more binding for Ib-1-biot presenting the same position. […] The surface plasmon resonance (SPR) technique is used to determine the relative avidity of aPL for R39-R43-biot and Ib-1-biot. The interaction between aPL and immobilized R39-R43-biot or Ib-1-biot is monitored by flowing various concentrations of aPL over a R39-R43-biot- or Ib-1-biot-coated chip surface (FIG. 1C). Through SPR experiments, it appears that aPL avidity for Ib-1-biot presents a resonance unit (RU) of 51.49 at 1/1,000 of dilution and a RU of 27.61 at 1/10,000 of dilution while, at the same dilution, it present a RU of 27.36 and a RU of 17.99 with R39-R43-biot, respectively (FIG. 1C). However, at higher concentrations, the peptides seems to show no differences in the interactions with aPL. […] Considering that IgG valency, it was decided to generate a dimeric Ib-1-biot peptide (Ib-1-biot-2x). This new polypeptide carries thus two optimized epitopes which have the opportunity to interact with two Fab fragment present on aPL. […] At higher concentration, i.e dilution of 1/100, the avidity for dimeric peptide is 28×more than for the monomeric (FIG. 1D).
# It was performed a peptide substitution scan of Ib-1-biot VSRGGMRKKKKPLTG (SEQ ID NO: 6) carrying the optimized epitope Ib-1-biot and based on an exchange of the underlined amino acid positions with the 20 main amino acids. The resulting peptide microarrays contained 140 different peptides. It was observed that the peptide substitution of the position n° 1, 2, 12 and 15 have significant influences on the ability to interact with aPL from patients 1, 2, 3, 4 and, in particular, form the plasma pool. Indeed, the substitution of the position 1, 12 or 15 by an Arginine (R) or a Lysine (K) increases the avidity of the peptide for all aPL from patients. […] In this context, the enhancement relative to Ib-1.0-biot-2x of identified peptides was evaluated (FIG. 2A). […] However, streptavidin being known to produce unspecific binding, it was used the ratio between aPL and a pool of human plasma as control (B/B0) (FIG. 2B, upper panel). This representation therefore allows to distinguish the real levels of interactions. It was then performed a dilution assay from dilution of 1/100 to 1/1,200,000 and it was observed relevant differences between the different identified peptides. By comparison of area under the curve (AUC), it was possible to detect the most prone-interacting peptide with aPL. Thus, the peptide IIa-8.0-biot-2x obtained the higher AUC (FIG. 2B, bottom panel). To formally quantify the ability of aPL to interact with IIa-8.0-biot-2x, it was monitored by flowing various concentrations of aPL over a IIa-8.0-biot-2x-coated chip surface (FIG. 2C). […] In FIG. 2C, bottom panel, it can be appreciated more precisely the improvement of the quality of interactions. […]
# [2] = tested on: aPL from a pool of 13 Human patients; test: Surface plasmon resonance, aPL flown over biotin-peptide-coated SA chip (BIAcore X100); type: binding
# Protocol: The kinetics and affinity of protein-protein and protein-lipid interactions were determined using a BIAcore X100 instrument. 1 mg/ml of biotin-tagged peptide (ligand) was immobilized using a sensor chip SA (GE Healthcare) surface, whereas aPL from a pool of 13 Human patients were flown as analyte. The first flow cell of the sensor chip was used as a control surface (no protein), whereas the second flow cell was employed as the active surface. A range of dilution of aPL analytes prepared in the same buffer was injected on both flow cell surfaces at a flow rate of 30 μl/min. Association and dissociation times for each protein injection were set at 90 and 120 s, respectively. In all cases, sensorgrams were obtained from three different dilutions of aPL.
# as §1
# It was performed a peptide substitution scan of Ib-1-biot VSRGGMRKKKKPLTG (SEQ ID NO: 6) carrying the optimized epitope Ib-1-biot and based on an exchange of the underlined amino acid positions with the 20 main amino acids. The resulting peptide microarrays contained 140 different peptides. It was observed that the peptide substitution of the position n° 1, 2, 12 and 15 have significant influences on the ability to interact with aPL from patients 1, 2, 3, 4 and, in particular, form the plasma pool. Indeed, the substitution of the position 1, 12 or 15 by an Arginine (R) or a Lysine (K) increases the avidity of the peptide for all aPL from patients. […] In this context, the enhancement relative to Ib-1.0-biot-2x of identified peptides was evaluated (FIG. 2A). […] However, streptavidin being known to produce unspecific binding, it was used the ratio between aPL and a pool of human plasma as control (B/B0) (FIG. 2B, upper panel). This representation therefore allows to distinguish the real levels of interactions. It was then performed a dilution assay from dilution of 1/100 to 1/1,200,000 and it was observed relevant differences between the different identified peptides. By comparison of area under the curve (AUC), it was possible to detect the most prone-interacting peptide with aPL. Thus, the peptide IIa-8.0-biot-2x obtained the higher AUC (FIG. 2B, bottom panel). […]
substance,measurement,setting,value
"IIa-8.0-biot-2x: dimeric biotinylated IIa-8.0 peptide; also used associated with streptavidin magnetic beads (RSRGGMRKRKKPLTGRSRGGMRKRKKPLTG; also: dimeric peptide (two IIa-8.0 copies), biotinylated, site not given here)","ability to interact with aPL, enhancement relative to Ib-1.0-biot-2x","[1]; ELISA, four dilutions of aPL pool (FIG. 2A)",significantly increased with at least three of the four dilutions
same,"area under the curve (AUC) of dilution assay, B/B0","[1]; dilution 1/100 to 1/1,200,000, aPL pool / pool of healthy plasma (FIG. 2B)",higher AUC
same,SPR AUC relative to the initial target R39-43,[2],> 10 ×
same,avidity of aPL relative to avidity for Ib-1.0-biot-2x,[2]; all dilutions (FIG. 2C upper panel),1.3 ×
same,SPR AUC relative to Ib-1.0-biot-2x,[2]; dilution 1/100 (FIG. 2C bottom panel),2.3 ×
same,SPR AUC relative to Ib-1.0-biot-2x,"[2]; dilution 1/1,000 (FIG. 2C bottom panel)",3.43 ×
same,SPR AUC relative to Ib-1.0-biot-2x,"[2]; dilution 1/10,000 (FIG. 2C bottom panel)",10.5 ×
same,sustained interaction / stability of binding with aPL (shape of SPR curves),[2]; stabilization curves,sustained stability of binding is also significantly increased

# From patent publication US20240116994A1, “Peptides And Use Thereof For Diagnosing And Treating Antiphospholipid Syndrome” (UNIVERSITE DE GENEVE, priority 2021, published 2024)
